Measurements published in ChEMBL document CHEMBL3797203, “Plasmin inhibitors with hydrophobic amino acid-based linker between hydantoin moiety and benzimidazole scaffold enhance inhibitory activity” (Bioorg Med Chem Lett, 2016).

The molecules below were run against Urokinase-type plasminogen activator (Homo sapiens, UniProt P00749) (assay: Inhibition of human urokinase using Pyr-Gly-Arg-MCA as substrate by fluorescence assay).

IC50 | SMILES
> 200 µM | CC[C@@H](C)[C@H](c1nc2ccc(C(=O)N[C@H](C#N)CCCCN)cc2n1C)N1C(=O)CN(c2ccc(Oc3ccccc3)cc2)C1=O
160 µM | C[C@H](c1nc2ccc(C(=O)N[C@H](C#N)CCCCN)cc2n1C)N1C(=O)CN(c2ccc(Oc3ccccc3)cc2)C1=O
> 200 µM | CC(C)[C@H](c1nc2ccc(C(=O)N[C@H](C#N)CCCCN)cc2n1C)N1C(=O)CN(c2ccc(Oc3ccccc3)cc2)C1=O
> 200 µM | C[C@@H](c1nc2ccc(C(=O)N[C@H](C#N)CCCCN)cc2n1C)N1C(=O)CN(c2ccc(Oc3ccccc3)cc2)C1=O
> 200 µM | CC(C)[C@@H](c1nc2ccc(C(=O)N[C@H](C#N)CCCCN)cc2n1C)N1C(=O)CN(c2ccc(Oc3ccccc3)cc2)C1=O
150 µM | CC(C)C[C@H](c1nc2ccc(C(=O)N[C@H](C#N)CCCCN)cc2n1C)N1C(=O)CN(c2ccc(Oc3ccccc3)cc2)C1=O

Further lines, the molecule ahead of its results:

SMILES | IC50
Cn1c(CN2C(=O)CN(c3ccc(F)cc3)C2=O)nc2ccc(C(=O)N[C@H](C#N)CCCCN)cc21 | > 200 µM
C[C@H](c1nc2ccc(C(=O)N[C@H](C#N)CCCCN)cc2n1C)N1C(=O)CN(c2ccc(F)cc2)C1=O | > 200 µM
C[C@@H](c1nc2ccc(C(=O)N[C@H](C#N)CCCCN)cc2n1C)N1C(=O)CN(c2ccc(F)cc2)C1=O | > 200 µM
C[C@@H](c1nc2ccc(C(=O)N[C@H](C#N)CCCCN)cc2n1C)N1C(=O)CN(c2ccc(Oc3ccncc3)cc2)C1=O | > 200 µM
C[C@H](c1nc2ccc(C(=O)N[C@H](C#N)CCCCN)cc2n1C)N1C(=O)CN(c2ccc(Oc3ccncc3)cc2)C1=O | > 200 µM

What follows are molecules tested against Plasminogen (Homo sapiens, UniProt P00747) (assay: Inhibition of human plasmin using Boc-Val-Leu-Lys-MCA as substrate by fluorescence assay).
Sequence of Plasminogen (P00747 97-580 limits assumed): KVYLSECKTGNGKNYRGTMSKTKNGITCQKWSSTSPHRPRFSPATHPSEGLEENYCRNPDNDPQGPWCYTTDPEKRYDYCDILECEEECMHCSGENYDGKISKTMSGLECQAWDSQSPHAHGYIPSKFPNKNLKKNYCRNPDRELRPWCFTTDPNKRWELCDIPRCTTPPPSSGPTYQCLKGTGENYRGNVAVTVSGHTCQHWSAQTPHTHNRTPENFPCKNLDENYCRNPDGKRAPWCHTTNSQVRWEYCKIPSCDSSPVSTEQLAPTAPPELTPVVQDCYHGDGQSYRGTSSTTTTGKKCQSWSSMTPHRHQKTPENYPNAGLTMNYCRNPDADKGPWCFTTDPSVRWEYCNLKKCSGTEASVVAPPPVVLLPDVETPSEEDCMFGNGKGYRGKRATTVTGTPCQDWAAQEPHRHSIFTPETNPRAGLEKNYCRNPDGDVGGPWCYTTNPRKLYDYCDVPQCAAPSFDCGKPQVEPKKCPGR
Sequence of Plasminogen (P00747 581-810 limits assumed): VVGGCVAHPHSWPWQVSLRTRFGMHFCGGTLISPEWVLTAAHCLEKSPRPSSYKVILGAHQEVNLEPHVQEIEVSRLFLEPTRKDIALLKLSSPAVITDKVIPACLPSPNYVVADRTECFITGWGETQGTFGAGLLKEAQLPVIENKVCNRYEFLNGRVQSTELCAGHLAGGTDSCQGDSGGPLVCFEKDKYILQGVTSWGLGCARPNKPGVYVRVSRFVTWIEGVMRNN

IC50 | SMILES
6.7 µM | CC[C@@H](C)[C@H](c1nc2ccc(C(=O)N[C@H](C#N)CCCCN)cc2n1C)N1C(=O)CN(c2ccc(Oc3ccccc3)cc2)C1=O
19 µM | C[C@H](c1nc2ccc(C(=O)N[C@H](C#N)CCCCN)cc2n1C)N1C(=O)CN(c2ccc(Oc3ccccc3)cc2)C1=O
4.9 µM | CC(C)[C@H](c1nc2ccc(C(=O)N[C@H](C#N)CCCCN)cc2n1C)N1C(=O)CN(c2ccc(Oc3ccccc3)cc2)C1=O
11 µM | C[C@@H](c1nc2ccc(C(=O)N[C@H](C#N)CCCCN)cc2n1C)N1C(=O)CN(c2ccc(Oc3ccccc3)cc2)C1=O
28 µM | CC(C)[C@@H](c1nc2ccc(C(=O)N[C@H](C#N)CCCCN)cc2n1C)N1C(=O)CN(c2ccc(Oc3ccccc3)cc2)C1=O
7.7 µM | CC(C)C[C@H](c1nc2ccc(C(=O)N[C@H](C#N)CCCCN)cc2n1C)N1C(=O)CN(c2ccc(Oc3ccccc3)cc2)C1=O

Further lines, the molecule ahead of its results:

SMILES | IC50
C[C@H](c1nc2ccc(C(=O)N[C@H](C#N)CCCCN)cc2n1C)N1C(=O)CN(c2ccc(F)cc2)C1=O | 45 µM
C[C@@H](c1nc2ccc(C(=O)N[C@H](C#N)CCCCN)cc2n1C)N1C(=O)CN(c2ccc(F)cc2)C1=O | 25 µM
C[C@@H](c1nc2ccc(C(=O)N[C@H](C#N)CCCCN)cc2n1C)N1C(=O)CN(c2ccc(Oc3ccncc3)cc2)C1=O | 19 µM
C[C@H](c1nc2ccc(C(=O)N[C@H](C#N)CCCCN)cc2n1C)N1C(=O)CN(c2ccc(Oc3ccncc3)cc2)C1=O | 12 µM

Species: Homo sapiens
Test: Selectivity ratio of IC50 for human urokinase to IC50 for human plasmin

Ratio IC50 | SMILES
40 | CC(C)[C@H](c1nc2ccc(C(=O)N[C@H](C#N)CCCCN)cc2n1C)N1C(=O)CN(c2ccc(Oc3ccccc3)cc2)C1=O
